In PubChem BioAssay (NCI):
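In this assay, cells in 96-well plates receive the compound at five concentrations for 48 hours. Endpoints are linearly interpolated between the surrounding concentrations. The concentration for 50% growth inhibition is given as GI50. TGI is the concentration that stops growth completely.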

Legend:
Test in all cases: DTP human tumour cell line panel, 48 h
[1] = system: DU-145 prostate
[2] = system: 786-0 renal
[3] = system: NCI-H23 lung
[4] = system: A549 NSCLC
[5] = system: MDA-MB-231 breast
[6] = system: MOLT-4 leukemia
[7] = system: UACC-257 melanoma
[8] = system: LOX IMVI melanoma
[9] = system: EKVX NSCLC
[10] = system: OVCAR-8 ovarian
[11] = system: IGROV1 ovarian
[12] = system: UACC-62 melanoma
[13] = system: SK-MEL-2 melanoma
[14] = system: SF-539 CNS
[15] = system: SN12C renal
[16] = system: U251 CNS
[17] = system: ACHN renal
[18] = system: BT-549 breast
[19] = system: RXF 393 renal
[20] = system: SK-OV-3 ovarian
[21] = system: CAKI-1 renal
[22] = system: SR leukemia
[23] = system: MCF7 breast
[24] = system: SNB-75 CNS
[25] = system: M14 melanoma
[26] = system: HT29 colon
[27] = system: HOP-92 NSCLC
[28] = system: SK-MEL-28 melanoma
[29] = system: HS 578T breast
[30] = system: HCT-116 colon
[31] = system: A498 renal
[32] = system: OVCAR-4 ovarian
[33] = system: MDA-MB-468 breast
[34] = system: SK-MEL-5 melanoma
[35] = system: MALME-3M melanoma
[36] = system: CCRF-CEM leukemia
[37] = system: SNB-19 CNS
[38] = system: T-47D breast
[39] = system: HL-60(TB) leukemia
[40] = system: OVCAR-3 ovarian
[41] = system: MDA-MB-435
[42] = system: NCI-H226 lung
[43] = system: RPMI-8226 leukemia
[44] = system: SW-620 colon
[45] = system: HCT-15 colon
[46] = system: COLO 205 colon
[47] = system: SF-268 CNS
[48] = system: TK-10 renal
[49] = system: NCI-H460 lung
[50] = system: OVCAR-5 ovarian
[51] = system: PC-3 prostate
[52] = system: HCC-2998 colon
[53] = system: NCI-H522 lung
[54] = system: K-562 leukemia
[55] = system: SF-295 CNS
[56] = system: KM12 colon
[57] = system: HOP-62 NSCLC
[58] = system: UO-31 renal

Work on CC1=C(C(=O)Nc2ccccc2)C(c2cccc3ccccc23)n2c(nc3ccccc32)N1 (stereo unspecified) yielded a GI50 [1] of 47.3 µM, a TGI [1] greater than 100 µM and a GI50 [2] of 25.1 µM. It also gave a TGI [2] greater than 100 µM, a GI50 [3] greater than 100 µM and a TGI [3] greater than 100 µM. For the same molecule, the GI50 [4] was 4.44 µM, the TGI [4] was greater than 100 µM and the GI50 [5] was 10.1 µM. For the same molecule, the TGI [5] was 93.1 µM, the GI50 [6] was greater than 100 µM and the TGI [6] was greater than 100 µM. It also gave a GI50 [7] greater than 100 µM, a TGI [7] greater than 100 µM and a GI50 [8] of 11 µM. For the same molecule, the TGI [8] was greater than 100 µM, the GI50 [9] was 73.7 µM and the TGI [9] was greater than 100 µM. It also gave a GI50 [10] of 14.5 µM, a TGI [10] greater than 100 µM and a GI50 [11] of 89.2 µM. The TGI [11] was greater than 100 µM, the GI50 [12] was greater than 100 µM and the TGI [12] was greater than 100 µM. For the same molecule, the GI50 [13] was 83.3 µM, the TGI [13] was greater than 100 µM and the GI50 [14] was 15.2 µM. For the same molecule, the TGI [14] was greater than 100 µM, the GI50 [15] was 9.91 µM and the TGI [15] was greater than 100 µM. For the same molecule, the GI50 [16] was 11.1 µM, the TGI [16] was greater than 100 µM and the GI50 [17] was 19.3 µM. It also gave a TGI [17] greater than 100 µM, a GI50 [18] of 13.1 µM and a TGI [18] greater than 100 µM. It also gave a GI50 [19] of 15.4 µM, a TGI [19] of 95.1 µM and a GI50 [20] greater than 100 µM. For the same molecule, the TGI [20] was greater than 100 µM, the GI50 [21] was greater than 100 µM and the TGI [21] was greater than 100 µM. For the same molecule, the GI50 [22] was greater than 100 µM, the TGI [22] was greater than 100 µM and the GI50 [23] was greater than 100 µM. It also gave a TGI [23] greater than 100 µM, a GI50 [24] of 1.76 µM and a TGI [24] of 5.95 µM. For the same molecule, the GI50 [25] was greater than 100 µM, the TGI [25] was greater than 100 µM and the GI50 [26] was greater than 100 µM. For the same molecule, the TGI [26] was greater than 100 µM, the GI50 [27] was 16.7 µM and the TGI [27] was greater than 100 µM. It also gave a GI50 [28] greater than 100 µM, a TGI [28] greater than 100 µM and a GI50 [29] of 2.9 µM. For the same molecule, the TGI [29] was 20.1 µM, the GI50 [30] was 6.62 µM and the TGI [30] was greater than 100 µM. For the same molecule, the GI50 [31] was greater than 100 µM, the TGI [31] was greater than 100 µM and the GI50 [32] was 5.93 µM. For the same molecule, the TGI [32] was greater than 100 µM, the GI50 [33] was 26.6 µM and the TGI [33] was greater than 100 µM. It also gave a GI50 [34] greater than 100 µM, a TGI [34] greater than 100 µM and a GI50 [35] of 16.5 µM. For the same molecule, the TGI [35] was 82 µM, the GI50 [36] was greater than 100 µM and the TGI [36] was greater than 100 µM. For the same molecule, the GI50 [37] was 9.08 µM, the TGI [37] was 76.9 µM and the GI50 [38] was greater than 100 µM. It also gave a TGI [38] greater than 100 µM, a GI50 [39] greater than 100 µM and a TGI [39] greater than 100 µM. It also gave a GI50 [40] greater than 100 µM, a TGI [40] greater than 100 µM and a GI50 [41] greater than 100 µM. For the same molecule, the TGI [41] was greater than 100 µM, the GI50 [42] was 16.4 µM and the TGI [42] was 96.1 µM. For the same molecule, the GI50 [43] was greater than 100 µM, the TGI [43] was greater than 100 µM and the GI50 [44] was greater than 100 µM. For the same molecule, the TGI [44] was greater than 100 µM, the GI50 [45] was greater than 100 µM and the TGI [45] was greater than 100 µM. The GI50 [46] was greater than 100 µM, the TGI [46] was greater than 100 µM and the GI50 [47] was 30.4 µM. For the same molecule, the TGI [47] was greater than 100 µM, the GI50 [48] was greater than 100 µM and the TGI [48] was greater than 100 µM. It also gave a GI50 [49] greater than 100 µM, a TGI [49] greater than 100 µM and a GI50 [50] greater than 100 µM. For the same molecule, the TGI [50] was greater than 100 µM, the GI50 [51] was 23.1 µM and the TGI [51] was greater than 100 µM. For the same molecule, the GI50 [52] was greater than 100 µM, the TGI [52] was greater than 100 µM and the GI50 [53] was greater than 100 µM. For the same molecule, the TGI [53] was greater than 100 µM, the GI50 [54] was greater than 100 µM and the TGI [54] was greater than 100 µM. It also gave a GI50 [55] of 60.4 µM, a TGI [55] greater than 100 µM and a GI50 [56] greater than 100 µM. For the same molecule, the TGI [56] was greater than 100 µM, the GI50 [57] was 20.2 µM and the TGI [57] was 56.9 µM. The GI50 [58] was greater than 100 µM and the TGI [58] was greater than 100 µM.
